Measured values reported in patent US9340493B2, “Hydroxamic acid derivatives useful as antibacterial agents” (Pfizer Inc., priority 2008, dated 2016).
In brackets after ≈: the same amount, converted by molar mass.

Key:
[1] = molecular target: T1, Pseudomonas aeruginosa LpxC enzyme (Pseudomonas aeruginosa, UniProt P47205); test: IC50 assay, LpxC enzyme from P. aeruginosa; type: biochemical; settings: 0.5 nM enzyme, 25° C., pH 8.0, 20 min; ** = average of 2-8 assays
T1 construct: made in house; host or cells: E. coli
T1 sequence (P47205 1-303): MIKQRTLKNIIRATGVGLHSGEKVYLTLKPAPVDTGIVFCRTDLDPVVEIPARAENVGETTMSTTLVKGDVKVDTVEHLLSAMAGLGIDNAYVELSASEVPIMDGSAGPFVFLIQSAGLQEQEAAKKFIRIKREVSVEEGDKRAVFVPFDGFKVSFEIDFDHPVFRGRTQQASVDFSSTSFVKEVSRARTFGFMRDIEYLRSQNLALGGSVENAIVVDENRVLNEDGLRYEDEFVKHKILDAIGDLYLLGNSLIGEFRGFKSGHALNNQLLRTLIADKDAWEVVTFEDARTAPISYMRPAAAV
Method: IC50 assay, LpxC enzyme from P. aeruginosa: IC50 determination in the LpxC enzyme assay was carried out in a similar manner to that described by S. A. Hyland et al., J. Bacteriology 1997, 179, 2029-2037. [See also T. Kline et al., J. Medicinal Chemistry 2002, 45, 3112-3129.] Briefly, Pseudomonas aeruginosa LpxC enzyme (0.5 nM) purified from E. coli-overexpressing bacteria was incubated at 25° C. in a final volume of 25 ul containing 0.5 uM UDP-3-O—(R-3-hydroxydecanoyl)-N—[^3H-acetyl]glucosamine (B. D. Maxwell and J. C. Bronstein, J. Labeled Compounds and Radiopharmaceuticals 2005, 48, 1049-1054), 1 mg/ml BSA, and 50 mM sodium phosphate buffer, pH 8.0 in the presence and absence of inhibitor compound. At the end of 20 min, 90 ul of a pre-mixed 3% suspension of activated charcoal in 100 mM sodium acetate, pH 7.5, was added to stop the enzyme reaction. The contents of the well were transferred to a filter plate and filtered, and an aliquot of the filtrate was quantitated by liquid scintillation spectrometry. A no-enzyme control was subtracted in order to eliminate background counts.

P. aeruginosa PAO280 = test: MIC determination, P. aeruginosa PAO280; type: cell-based; settings: Pseudomonas aeruginosa, PAO280, read-out: MIC (ug/mL) P. aeruginosa PAO280
Method: (§1) MIC determinations: The in vitro antibacterial activity of compounds described in the Examples was evaluated by minimum inhibitory concentration (MIC) testing according to Clinical and Laboratory Standards Institute (CLSI, formerly NCCLS) guidelines. See: Clinical and Laboratory Standards Institute. Methods for Dilution Antimicrobial Susceptibility Tests for Bacteria that Grow Aerobically; Approved Standard-Seventh Edition. CLSI document M7-A7 [ISBN 1-56238-587-9]. Clinical and Laboratory Standards Institute, 940 West Valley Road, Suite 1400, Wayne, Pa. 19087-1898 USA, 2006; also Clinical and Laboratory Standards Institute. Performance Standards for Antimicrobial Susceptibility Testing; Eighteenth Informational Supplement. CLSI document M100-S18 [ISBN1-56238-653-0]. Clinical and Laboratory Standards Institute.
(§2) The following bacterial strains were used:
Pseudomonas aeruginosa PA0280: lacks efflux pumps MexAB-oprM, MexXY and MexZ

P. aeruginosa UI-18 = test: MIC determination, P. aeruginosa UI-18; type: cell-based; settings: Pseudomonas aeruginosa, UI18; wild-type; * = arithmetic mean of 2-6 MIC determinations; read-out: MIC (ug/mL) P. aeruginosa UI-18
Method: as §1, §2
P. aeruginosa UI-18: Wild-type;

[2] = tested on: Acinetobacter baumanii/haemolyticus; test: MIC determination, A. baumanii/haemolyticus; type: cell-based; settings: Acinetobacter baumannii; multidrug-resistant clinical isolate; * = arithmetic mean of 2-6 MIC determinations; read-out: MIC (ug/mL) A. baumanii/haemolyticus
Method: as §1, §2
Acinetobacter baumanii/haemolyticus: Multidrug-resistant clinical isolate;

Enterobacter aerogenes = test: MIC determination, E. aerogenes; type: cell-based; settings: Klebsiella aerogenes; quinolone-resistant, ESBL-expressing clinical isolate; * = arithmetic mean of 2-6 MIC determinations; read-out: MIC (ug/mL) E. aerogenes
Method: as §1, §2
Enterobacter aerogenes: Quinolone-resistant isolate, expresses extended-spectrum beta-lactamases (ESBL), clinical isolate;

Escherichia coli EC-1 = test: MIC determination, E. coli EC-1; type: cell-based; settings: EC1, EC-1: VOGEL, * = arithmetic mean of 2-6 MIC determinations, read-out: MIC (ug/mL) E. coli EC-1
Method: as §1, §2
Escherichia coli EC-1: VOGEL;

Klebsiella pneumoniae = test: MIC determination, K. pneumoniae; type: cell-based; settings: ciprofloxacin-resistant, ESBL-expressing clinical isolate, * = arithmetic mean of 2-6 MIC determinations, read-out: MIC (ug/mL) K. pneumoniae
Method: as §1, §2
Klebsiella pneumoniae: Ciprofloxacin-resistant isolate, expresses extended-spectrum beta-lactamases (ESBL), clinical isolate;

[3] = tested on: Staphylococcus aureus ATCC 29213; test: MIC determination, S. aureus ATCC 29213; type: cell-based; settings: ATCC29213, CLSI quality control reference strain, * = arithmetic mean of 2-6 MIC determinations, read-out: MIC (ug/mL) S. aureus ATCC 29213
Method: as §1, §2
Staphylococcus aureus ATCC 29213: CLSI quality control reference strain; and […]

Row | Compound | IC50 [1] [µM] | MIC (P. aeruginosa PAO280) [µg/mL] | MIC (P. aeruginosa UI-18) [µg/mL] | MIC [2] [µg/mL] | MIC (Enterobacter aerogenes) [µg/mL] | MIC (Escherichia coli EC-1) [µg/mL] | MIC (Klebsiella pneumoniae) [µg/mL] | MIC [3] [µg/mL]
1 | C[C@@](OCc1ccc(-c2ccccc2)cc1)(C(=O)NO)[C@@H](O)c1ccoc1 [Example 22, (2S,3S)-2-(biphenyl-4-ylmethoxy)-3-(3-furyl)-N,3-dihydroxy-2-methylpropanamide] | 0.0105 | 4 (≈ 10.9 µM) | > 8 | > 8 | > 8 | > 8 | > 8 | > 8
2 | CCCc1ccc(-c2ccc(COC(CO)(CO)C(=O)NO)cc2)cc1 [Example 51, N,3-dihydroxy-2-(hydroxymethyl)-2-[(4′-propylbiphenyl-4-yl)methoxy]propanamide] | 0.00186 | 1 (≈ 2.78 µM) | > 16 | > 16 | > 16 | > 16 | > 16 | > 16
3 | Cc1ccc(-c2ccc(CO[C@](C)(C(=O)NO)[C@@H](O)c3cc(C)on3)cc2)nc1 [Example 32, (2S,3S)-N,3-dihydroxy-2-methyl-3-(5-methylisoxazol-3-yl)-2-{[4-(5-methylpyridin-2-yl)benzyl]oxy}propanamide] | 0.000286 | 0.06 (≈ 0.151 µM) | 8 (≈ 20.1 µM) | > 64 | > 64 | 32 (≈ 80.5 µM) | 64 (≈ 161 µM) | > 64
4 | Cc1cc(CNC(=O)C(C)(OCc2ccc(-c3ccc(F)cc3)nc2)C(=O)NO)no1 (centres unmarked) [Example 53, 2-{[6-(4-fluorophenyl)pyridin-3-yl]methoxy}-N-hydroxy-2-methyl-N′-[(5-methylisoxazol-3-yl)methyl]malonamide] | 0.0143 | 0.5 (≈ 1.17 µM) | 32 (≈ 74.7 µM) | 64 (≈ 149 µM) | > 64 | 16 (≈ 37.3 µM) | > 64 | > 64
5 | C[C@@](OCc1ccc(-c2ccccc2)cc1)(C(=O)NO)[C@@H](O)c1cc(-c2ccccc2)on1 [Example 28, (2S,3S)-2-(biphenyl-4-ylmethoxy)-N,3-dihydroxy-2-methyl-3-(5-phenylisoxazol-3-yl)propanamide] | 0.00143 | 4 (≈ 9 µM) | 8 (≈ 18 µM) | 8 (≈ 18 µM) | > 16 | 8 (≈ 18 µM) | > 16 | 16 (≈ 36 µM)
6 | COCc1cc(CNC(=O)C(C)(OCc2ccc(-c3ccccc3)cc2)C(=O)NO)no1 (centres unmarked) [Example 85, 2-(biphenyl-4-ylmethoxy)-N-hydroxy-N′-{[5-(methoxymethyl)isoxazol-3-yl]methyl}-2-methylmalonamide] | 0.00159 | 0.125 (≈ 0.284 µM) | 8 (≈ 18.2 µM) | 64 (≈ 146 µM) | > 64 | 16 (≈ 36.4 µM) | 32 (≈ 72.8 µM) | 64 (≈ 146 µM)
7 | Cc1ccnc(-c2ccc(COC(C)(C(=O)NO)C(=O)NCc3cc(C)on3)cc2)c1 (centres unmarked) [Example 87, N-hydroxy-2-methyl-N′-[(5-methylisoxazol-3-yl)methyl]-2-{[4-(4-methylpyridin-2-yl)benzyl]oxy}malonamide] | 0.0023 | 0.25 (≈ 0.589 µM) | 32 (≈ 75.4 µM) | > 64 | > 64 | > 64 | > 64 | > 64
8 | C[C@@](OCc1ccc(-c2ccccc2)cc1)(C(=O)NO)[C@@H](O)c1cncs1 [Example 21, (2S,3R)-2-(biphenyl-4-ylmethoxy)-N,3-dihydroxy-2-methyl-3-(1,3-thiazol-5-yl)propanamide] | 0.00823 | 4 (≈ 10.4 µM) | > 64 | > 64 | > 64 | > 64 | > 64 | > 64
9 | C[C@@](OCc1ccc(-c2ccccc2)cc1)(C(=O)NO)[C@@H](O)c1ncco1 [Example 33, (2S,3R)-2-(biphenyl-4-ylmethoxy)-N,3-dihydroxy-2-methyl-3-(1,3-oxazol-2-yl)propanamide] | 0.00323 | 0.25 (≈ 0.679 µM) | 8 (≈ 21.7 µM) | > 64 | > 64 | 64 (≈ 174 µM) | > 64 | > 64
10 | C[C@@](OCc1ccc(-c2ccccc2)cc1)(C(=O)NO)[C@@H](O)c1cn2ccccc2n1 [Example 25, (2S,3S)-2-(biphenyl-4-ylmethoxy)-N,3-dihydroxy-3-imidazo[1,2-a]pyridin-2-yl-2-methylpropanamide] | 0.00138 | 0.03 (≈ 0.0719 µM) | 1.67 (≈ 4 µM) | 32 (≈ 76.7 µM) | 16 (≈ 38.3 µM) | 3 (≈ 7.19 µM) | 4 (≈ 9.58 µM) | > 64
11 | C[C@@](OCc1ccc(-c2ccccc2)cc1)(C(=O)NO)[C@@H](O)c1ccco1 [Example 13, (2S,3S)-2-(biphenyl-4-ylmethoxy)-3-(2-furyl)-N,3-dihydroxy-2-methylpropanamide] | 0.00163 | 0.5 (≈ 1.36 µM) | 32 (≈ 87.1 µM) | > 32 | > 32 | > 32 | > 32 | > 32
12 | CNC(=O)C(C)(OCc1ccc(-c2ccccc2)cc1)C(=O)NO (centres unmarked) [Example 93, 2-(biphenyl-4-ylmethoxy)-N-hydroxy-N′,2-dimethylmalonamide] | – | 0.125 (≈ 0.381 µM) | 8 (≈ 24.4 µM) | > 64 | > 64 | 32 (≈ 97.5 µM) | 64 (≈ 195 µM) | > 64
